One assay concerns S. pyogenes. Briefly: Effect of solvent (water or D2O) on ceftazidime activity. It counts as cell-based. The following applies: dissolved in D2O (FIG. 33). As to the method: The effect of solvent on ceftazidime activity was tested to confirm that dissolving ceftazidime in D2O could alter its efficacy. We therefore dissolved control and modified ceftazidime in water of D2O and tested it effect on S. pyogenes (FIG. 33). […] Thus, our findings underscore the unique importance of isotopes.

Assay [1] has as its system normotensive Sprague-Dawley rats. Briefly: Nicardipines on blood pressure in normotensive Sprague-Dawley rats (Example VI). The note with it: for slope function of dose response: calculated by Litchfield-Wilcoxon method; for change in mean arterial pressure at equipotent doses: control 1×10^−9 moles, deuterated 3×10^−9 moles, p=NS; for ED16, reduction in mean arterial pressure / ED50, reduction in mean arterial pressure / ED84, reduction in mean arterial pressure: injected, anesthetized rats. It counts as in vivo, rat. The text has this: Effect of deuterated control […] on blood pressure in normotensive Sprague-Dawley rats.

Another assay relates to S. aureus. Put plainly: Penicillin V dose-response study. Type of assay: cell-based. As to the method:
A dose-response study for penicillin V using S. aureus was conducted (FIG. 30). […] These conditions used a higher inoculum (100 fold) than previous studies.
A experiment similar to that above was performed except that the dose range was larger.

Assay [2] concerns Spontaneously hypertensive rats (SHR). Briefly: Blood pressure effect of i.v. nifedipines in anesthetized spontaneously hypertensive rats (Example II). Type of assay: in vivo, rat. The following applies: at the three lower concentrations, p=0.08 Wilcoxon rank-sum (FIG. 1).
Experimental: Spontaneously hypertensive rats (SHR) were anesthetized with pentobarbital (65 mg/kg, intraperitoneally) and a carotid artery and jugular vein cannulated. Blood pressure was continuously monitored via the carotid artery cannula. […] Aliquots of appropriate dilutions were then injected intravenously in the SHR and blood pressure effects monitored for at least two hours following injection. Doses used were 0.00001, 0.00002, 0.000025, and 0.00005 moles per rat in the control group and in the test group. All rats were within 25 grams of body weight of each other.
Assay [3] has as its system normotensive Sprague-Dawley rats. Briefly: Nifedipines on blood pressure in normotensive Sprague-Dawley rats (Example V). It counts as in vivo, rat. The following applies: for maximum change in mean arterial pressure at equipotent doses: 1 ml injected, control 2×10^−3 molar, p=NS; for maximum change in mean arterial pressure at equipotent doses / duration of action (hypotensive response): deuterated 1×10^−3 molar; for duration of action (hypotensive response): equipotent doses: control 2×10^−3 molar, p=0.02. The text has this: Effect of deuterated and control nifedipines on blood pressure in normotensive Sprague-Dawley rats.

In assay [4] the test system is T type calcium channels in NE 115 cells. Put plainly: Use dependency of calcium channel inhibition, whole cell patch-clamp with repetitive pulses (Example IV).
Experimental: In the following set of examples, calcium channels were depolarized with repetitive pulses of current at the intervals indicated. Such studies were carried out using the whole cell version of the patch-clamp. The reduction of inward current as a function of the interval between pulses in the absence of any drug was taken as the control.
Assay [5] concerns Staphylococcus aureus. Briefly: Antibiotic tube dilution (NCCLS). Type of assay: cell-based. The following applies: tube dilution (FIG. 20 penicillin V, FIG. 26 methicillin). As to the method:
(§1) Antibiotic testing was carried out using disc diffusion and tube dilution methods following NCCLS (National Committee for Clinical Laboratory Standards) methodology with several strains of bacteria.
(§2) Antibiotic testing was carried using disc diffusion and tube dilution methods following NCCLS (National Committee for Clinical Laboratory Standards) methodology.

Assay [6] concerns Streptococcus pyogenes. Briefly: Antibiotic tube dilution (NCCLS). Type of assay: cell-based. The following applies: tube dilution (FIG. 20 penicillin V, FIG. 26 methicillin). The protocol: as §1, §2
Assay [7] relates to Staphylococcus aureus. Briefly: Antibiotic disc diffusion (NCCLS). It counts as cell-based. The following applies: disc diffusion (FIG. 19, 29 ceftazidime; FIGS. 21, 22 penicillin V; FIG. 27 methicillin). The protocol: as §1, §2
On the technique in general: Agar diffusion results depend on both activity and mobility in agar.

In assay [8] the test system is Streptococcus faecalis. Put plainly: Antibiotic disc diffusion (NCCLS). It counts as cell-based. The note with it: disc diffusion (FIGS. 21, 22 penicillin V; FIG. 27 methicillin). The protocol:
as §1, §2

The test system of assay [9] is Streptococcus pyogenes. Briefly: Antibiotic disc diffusion (NCCLS). The following applies: disc diffusion (FIGS. 21, 22 penicillin V; FIG. 27 methicillin). It counts as cell-based. As to the method:
as §1, §2

Assay [10] deals with Staphylococcus aureus (ATCC 25923) or Streptococcus faecalis (ATCC 29212). Briefly: Penicillin V zonal inhibition on Mueller-Hinton agar plates. Type of assay: cell-based. The note with it: disks with 0.1 ml of 1 mg/ml solution, 24 hours at 37° C. (FIG. 23). The protocol:
Penicillin V. or deuterated penicillin V disks were prepared by allowing 0.1 ml of a 1 mg/ml solution of the respective drugs to absorb into filter paper disks. After drying the disks were placed onto Mueller-Hinton agar plates seeded with either Staphylococcus aureus (ATCC 25923) or Streptococcus faecalis (ATCC 29212). The resulting plates were incubated for 24 hours at 37° C. and zones of inhibition around the disks were measured. Results are graphically depicted in FIG. 23.

The subject of assay [11] is S. aureus clinical isolates. Briefly: Penicillin V on clinical isolates. It counts as cell-based. The following applies: methicillin sensitive isolates (FIGS. 34 and 35). As to the method:
The effect of control and deuterated penicillin V on S. aureus clinical isolates was determined (FIGS. 34 and 35). […] The modest differences may be related to the concentrations used and density of bacterial seeding on the plates.

Assay [12] relates to Streptococcus faecalis. Briefly: Antibiotic tube dilution (NCCLS). It counts as cell-based. The following applies: tube dilution (FIG. 26 methicillin). The protocol: as §1, §2

With `CC(C)(O/N=C(\C(=O)N[C@@H]1C(=O)N2C(C(=O)[O-])=C(C[n+]3ccccc3)CS[C@H]12)c1csc(N)n1)C(=O)O` [control ceftazidime, ceftazidime], the “activity when dissolved in D2O” value with S. pyogenes is “enhance activity”.
Turning to `COC(=O)C1=C(C)NC(C)=C(C(=O)OCCN(C)Cc2ccccc2)C1c1cccc([N+](=O)[O-])c1` (stereo not drawn) [control nicardipine, nicardipine, reference compound], in [1], the “slope function of dose response” value is 416; the “change in mean arterial pressure at equipotent doses” value is on record as −13.8 mmHg; the “ED16, reduction in mean arterial pressure” value came to 6.11e-06 mmol; the “ED50, reduction in mean arterial pressure” value is 0.00254 mmol. The “ED84, reduction in mean arterial pressure” value in assay [1] was found to be 1.06 mmol.
In the case of `CC1(C)S[C@@H]2[C@H](NC(=O)COc3ccccc3)C(=O)N2[C@H]1C(=O)O` [control penicillin V, penicillin V, reference compound], in the assay on S. aureus (higher doses, larger dose range (FIG. 31)), the bacteriocidal activity result is given as “ineffective”.
Take `[2H]C([2H])([2H])C1=C(C(=O)OC)C(c2cccc([N+](=O)[O-])c2)C(C(=O)OCCN(C)Cc2ccccc2)=C(C([2H])([2H])[2H])N1` (stereo not drawn) [deuterated nicardipine]: in assay [1] (at most time periods (FIG. 10)), the “duration of effect compared with control” value was “greater for deuterated nicardipine compared to control nicardipine”. Further, in assay [1], the “slope function of dose response” value is 46; the “change in mean arterial pressure at equipotent doses” value is −13.8 mmHg; the “ED16, reduction in mean arterial pressure” value came to 4.62e-05 mmol; the “ED50, reduction in mean arterial pressure” value worked out at 0.00211 mmol. The “ED84, reduction in mean arterial pressure” value in assay [1] was determined as 0.09 mmol.
In the case of `[2H]C([2H])([2H])C1=C(C(=O)OC)C(c2ccccc2[N+](=O)[O-])C(C(=O)OC)=C(C([2H])([2H])[2H])N1` [deuterated nifedipine], in assay [2], the “hypotensive effect compared with regular nifedipine” value is “greater than that of regular nifedipine”. Moreover, in assay [3], the “maximum change in mean arterial pressure at equipotent doses” value is listed as −40.3 mmHg and the “duration of action (hypotensive response)” value amounted to 62.2 min. Further, the “potency on mean arterial pressure compared with control” value in assay [3] (all doses, six rats per dose, p<0.05 (FIG. 6)) was “more potent than control nifedipine”. In assay [3] (at each time period), the “duration of effect compared with control” value is recorded as “greater for deuterated nifedipine compared to control nifedipine”. Also, in assay [4] (1 and 0.3 second intervals, 5 micromolar (FIG. 4)), the “calcium current inhibition as a function of pulse frequency” value was “more effective than control nifedipine in blocking the calcium channels”. Moreover, the “decrease of inward current at increased stimulation frequency” value in [4] (5 micromolar, FIG. 2 panel C) is “more effective than control nifedipine”. Besides, the “use dependent calcium channel inhibition” value in [4] (all frequencies, 5 micromolar (FIG. 5)) is given as “greater use dependent calcium channel inhibition”. Moreover, in [4] (repetitive 1 second pulses, 5 micromolar, p<0.05 (FIG. 3)), the “inhibitory effect on inward calcium current” value is on record as “more effective at blocking calcium current than control current”.
`CC1(C)S[C@@H]2[C@H](NC(=O)COc3ccccc3)C(=O)N2[C@H]1C(=O)O` [deuterated penicillin V]: the “concentration necessary to inhibit growth, modified vs control drug” value in the assay on Staphylococcus aureus [5] and in the assay on Streptococcus pyogenes [6] was “substantially less compared to control drug” in each case. In addition, the “zones of inhibition, modified vs control drug” value in the assay with Staphylococcus aureus [7], in the assay on Streptococcus faecalis [8] and in the assay on Streptococcus pyogenes [9] was “greater for modified (test) compared to control drug” throughout. Moreover, the “potency relative to native penicillin V in zonal inhibition” value in [10] is “increase in potency”. The bacteriocidal activity entry is reported as “began to show effect” in the assay with S. aureus (high dose, higher inoculum (100 fold) (FIG. 30)) and “effective at higher doses” with S. aureus (higher doses, larger dose range (FIG. 31), listed as modified penicillin V). The “potency, modified vs control drug” value in assay [11] was “always more potent than the controls”.
As for `[2H]c1c([2H])c(OC)c(C(=O)N([2H])C2C(=O)N3C2SC(C)(C)C3C(=O)[O-])c(OC)c1[2H].[Na+]` (stereo not drawn) [modified methicillin], the “concentration necessary to inhibit growth, modified vs control drug” value with Staphylococcus aureus [5], in the assay with Streptococcus faecalis [12] and in the assay on Streptococcus pyogenes [6] was “less for control compared to modified drug” each time. The “zones of inhibition, modified vs control drug” value in the assay with Staphylococcus aureus [7], in the assay with Streptococcus faecalis [8] and with Streptococcus pyogenes [9] was “less for modified compared to control drug” throughout.
With `COC(=O)C1=C(C)NC(C)=C(C(=O)OC)C1c1ccccc1[N+](=O)[O-]` [nifedipine, reference compound], in assay [3], the “maximum change in mean arterial pressure at equipotent doses” value is recorded as −45.8 mmHg and the “duration of action (hypotensive response)” value came out at 46.5 min.

(Values after patent publication US6818200B2, “Method of using deuterated calcium channel blockers” (priority 1994, dated 2004).)
